Measurements as given in US8034329B2, “Repair and regeneration of renal tissue using human umbilical cord tissue-derived cells” (Advanced Technologies And Regenerative Medicine, LLC, priority 2007, dated 2011).

System: HLA-DR, DP, DQ expression of hUTC
Experiment: Inhibition of IFN-gamma-induced expression of HLA-DR, DP, DQ on hUTC, flow cytometry
Format: cell-based, human
Method: Culture-expanded human umbilical cord tissue-derived cells (022803 P4) were seeded into 6-well tissue culture plates and cultured in Dulbecco's Modified Eagles Media (DMEM)-low glucose, 15% fetal bovine serum (FBS), penicillin/streptomycin (P/S), Betamercaptoethanol (BME) to approximately 70% confluence. The cells were then treated with media containing 10 μM of respective HMG-CoA reductase inhibitor (Simvastatic acid (Alexis Biochemicals, Lausen, Switzerland) formulated as 10 mM stock reagents in DMSO) or DMSO vehicle—0.1% (Sigma, St. Louis, Mo.) and incubated overnight. The media was removed by aspiration and replaced with media containing 500 U/ml rhIFN-gamma (BD Pharmingen, Franklin Lakes, N.J.) and […] of respective HMG-CoA reductase inhibitor and incubated for 3 days. On day three, cells were harvested with trypsin.
Harvested cells were washed once with PBS and re-suspended in 100 μl of 3% FBS in PBS with 20 μl FITC-labeled HLA-DR,DP,DQ (BD Biosciences, Franklin Lakes, N.J.) or FITC-labeled IgG antibody (BD Biosciences, Franklin Lakes, N.J.) and incubated for one hour. Cells were washed once in PBS and resuspended in 500 μl PBS and analyzed on a FACSCalibur flow cytometer (BS Biosciences, Franklin Lakes, N.J.).

CCC(C)(C)C(=O)O[C@H]1C[C@@H](C)C=C2C=C[C@H](C)[C@H](CC[C@@H]3C[C@@H](O)CC(=O)O3)[C@H]21 [Simvastatin] was tested, and the “HLA-DR, DP, DQ expression, FITC fluorescence intensity, IFN-gamma-treated, mean” value (10 μM inhibitor overnight, then 500 U/ml rhIFN-gamma plus inhibitor 3 days) was 5.57, the “HLA-DR, DP, DQ expression, FITC fluorescence intensity, No cytokine treatment, Mean” value (10 μM inhibitor, no IFN-gamma) was 5.66 and the “FITC fluorescence intensity, IgG control, mean” value (10 μM inhibitor, FITC-labeled IgG antibody) was 4.4.
